Assay results as given in US8435990B2, “Dihydropyrimidone amides as P2X7 modulators” (Roche Palo Alto LLC, priority 2009, dated 2013).

Molecular target: T1, human P2X7 (Homo sapiens, UniProt Q99572)
T1 construct: 1321N1 cells stably expressing the full length human P2X7 gene (1321N1-hP2X7)
T1 sequence (Q99572 1-595): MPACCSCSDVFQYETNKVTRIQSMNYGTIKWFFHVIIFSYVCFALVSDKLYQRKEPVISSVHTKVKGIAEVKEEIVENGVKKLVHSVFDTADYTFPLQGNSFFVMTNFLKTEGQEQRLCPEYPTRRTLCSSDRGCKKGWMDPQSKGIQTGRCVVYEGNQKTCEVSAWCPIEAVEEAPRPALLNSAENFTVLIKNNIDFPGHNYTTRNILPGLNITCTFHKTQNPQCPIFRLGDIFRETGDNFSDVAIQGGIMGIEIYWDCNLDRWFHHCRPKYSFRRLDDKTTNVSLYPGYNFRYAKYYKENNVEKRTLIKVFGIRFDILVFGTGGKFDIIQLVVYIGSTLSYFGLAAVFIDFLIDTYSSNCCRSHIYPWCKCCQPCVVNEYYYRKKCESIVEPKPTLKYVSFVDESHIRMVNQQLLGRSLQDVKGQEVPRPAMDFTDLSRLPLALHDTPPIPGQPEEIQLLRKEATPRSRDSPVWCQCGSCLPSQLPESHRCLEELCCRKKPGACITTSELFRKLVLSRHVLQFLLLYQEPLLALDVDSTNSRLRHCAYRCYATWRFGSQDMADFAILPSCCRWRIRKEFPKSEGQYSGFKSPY
Experiment: P2X7 modulator pIC50 of Table 1 (assay not given; Intracellular Calcium Flux (FLIPR) Assay assumed)
Format: cell-based
Protocol: Intracellular Calcium Flux (FLIPR) Assay
Stock solutions of compounds were prepared from powders as a 10 mM DMSO stock solution. These solutions were stored at RT during the two week period of these experiments to prevent freeze-thaw of the DMSO stocks. The DMSO stocks were added to the appropriate assay buffer at a concentration of 10 μM, and then diluted serially to the final concentrations that were tested. No observable precipitate was formed at any time during this process. The aqueous solutions of compounds as well as ATP (Sigma A7699) and BzATP (Sigma B6396) were prepared fresh for each day of experiment.
1321N1 cells stably expressing the full length human P2X7 gene (1321N1-hP2X7) and HEK293 cells stably expressing the full length rat P2X7 gene (HEK293-rP2X7) were obtained from the Roche Cell Culture Facility. 1321N1-hP2X7 cells were grown in Dulbecco's Modified Eagle's Medium (DMEM) high glucose supplemented with 10% FBS and 250 μg/mL G418. HEK293-rP2X7 cells were grown in DMEM/F-12 supplemented with 10% FBS, 1 mM CaCl2, 2 mM MgCl2, 2 mM L-Glutamine and 500 μg/ml G418. Cells were split such that they never became >70% confluent.
On the day prior to the experiment, 1321N1-hP2X7 or HEK293-rP2X7 cells were released into suspension with calcium-free PBS+Versene and washed by centrifugation with calcium-free PBS to remove the Versene. Cells were resuspended in growth medium at a density of 2.5×10^5 cells/mL and seeded into black walled, clear bottom 96 well plates (50,000 cells/well) approximately 18 hr prior to intracellular calcium flux experiments.
On the day of the experiment, plates were washed with FLIPR buffer (calcium- and magnesium-free Hank's Balanced Salt Solution (HBSS) supplemented with 10 mM Hepes, 2.5 mM probenecid and 2 mM calcium chloride) using a BIO-TEK 96 channel plate washer and incubated with […] fluo-3 dye at 37° C. for one hr. The dye was then removed by plate washing and the cells were allowed to equilibrate for 20 min at room temperature with antagonist or vehicle (FLIPR buffer). Agonist (100 μM BzATP final concentration for hP2X7; 5μM BzATP final concentration or rP2X7) was added online with the FLIPR and fluorescence measurements made at 1 sec intervals for 60 sec followed by 3 sec intervals for a further 4 min (5 min total). A final addition of 5 μM ionomycin was made and the maximal BzATP-evoked fluorescence normalized to the maximal ionomycin-evoked fluorescence.

| Compound | IC50 [nM] |
| --- | --- |
| Cc1cc2cnn(CC(=O)N(C)C)c2cc1NC(=O)C1=CN(C)C(=O)N[C@H]1c1ccc(F)cc1 [Compound 58] | 40.3 |
| COCCN1C=C(C(=O)Nc2cc(OCCO)c(Cl)cc2C)[C@H](c2ccc(F)cc2)NC1=O [Compound 39, (S)-4-(4-Fluoro-phenyl)-1-(2-methoxy-ethyl)-2-oxo-1,2,3,4-tetrahydro-pyrimidine-5-carboxylic acid [4-chloro-5-(2-hydroxy-ethoxy)-2-methyl-phenyl]-amide] | 43 |
| Cc1ccc(-c2cncc(=O)[nH]2)cc1NC(=O)C1=CN(C)C(=O)N[C@H]1c1ccc(F)cc1 [Compound 28, (S)-4-(4-Fluoro-phenyl)-1-methyl-2-oxo-1,2,3,4-tetrahydro-pyrimidine-5-carboxylic acid [2-methyl-5-(6-oxo-1,6-dihydro-pyrazin-2-yl)-phenyl]-amide] | 153 |
| Cc1c(NC(=O)C2=CN(C)C(=O)N[C@H]2c2ccc(F)cc2)cccc1-c1ccn[nH]1 [Compound 23, (S)-4-(4-Fluoro-phenyl)-1-methyl-2-oxo-1,2,3,4-tetrahydro-pyrimidine-5-carboxylic acid [2-methyl-3-(2H-pyrazol-3-yl)-phenyl]-amide] | 184 |
| Cc1ccc(-c2ccnn(C)c2=O)cc1NC(=O)C1=CN(C)C(=O)N[C@H]1c1cccc(F)c1 [Compound 44, (S)-4-(3-Fluoro-phenyl)-1-methyl-2-oxo-1,2,3,4-tetrahydro-pyrimidine-5-carboxylic acid [2-methyl-5-(2-methyl-3-oxo-2,3-dihydro-pyridazin-4-yl)-phenyl]-amide] | 54.3 |
| Cc1cnn(-c2cc(NC(=O)C3=CN(C)C(=O)N[C@H]3c3ccc(F)cc3)c(C)cc2F)c(=O)c1 [Compound 73, (S)-4-(4-Fluoro-phenyl)-1-methyl-2-oxo-1,2,3,4-tetrahydro-pyrimidine-5-carboxylic acid [4-fluoro-2-methyl-5-(4-methyl-6-oxo-6H-pyridazin-1-yl)-phenyl]-amide] | 56.9 |
| Cc1ccc(-c2ccnn(C)c2=O)cc1NC(=O)C1=CN(C)C(=O)N[C@H]1c1ccc(F)cc1 [Compound 22, (S)-4-(4-Fluoro-phenyl)-1-methyl-2-oxo-1,2,3,4-tetrahydro-pyrimidine-5-carboxylic acid [2-methyl-5-(2-methyl-3-oxo-2,3-dihydro-pyridazin-4-yl)-phenyl]-amide] | 11.5 |
| COC[C@@H](O)Cn1nc(-c2ccc(C)c(NC(=O)C3=CN(C)C(=O)N[C@H]3c3ccc(F)cc3)c2)cc1C [Compound 36, (S)-4-(4-Fluoro-phenyl)-1-methyl-2-oxo-1,2,3,4-tetrahydro-pyrimidine-5-carboxylic acid {5-[1-((S)-2-hydroxy-3-methoxy-propyl)-5-methyl-1H-pyrazol-3-yl]-2-methyl-phenyl}-amide] | 140 |
| Cc1ccc2ncccc2c1NC(=O)C1=CN(C)C(=O)N[C@H]1c1ccc(F)cc1 [Compound 11, (S)-4-(4-Fluoro-phenyl)-1-methyl-2-oxo-1,2,3,4-tetrahydro-pyrimidine-5-carboxylic acid (6-methyl-quinolin-5-yl)-amide] | 120 |
| Cc1ccc(=O)n(-c2ccc(C)c(NC(=O)C3=CN(C)C(=O)N[C@H]3c3ccc(F)cc3)c2)c1 [Compound 71, (S)-4-(4-Fluoro-phenyl)-1-methyl-2-oxo-1,2,3,4-tetrahydro-pyrimidine-5-carboxylic acid [2-methyl-5-(5-methyl-2-oxo-2H-pyridin-1-yl)-phenyl]-amide] | 43.2 |
| Cc1cc(-c2ccc(C)c(NC(=O)C3=CNC(=O)N[C@@H]3c3ccc(F)cc3)c2)n[nH]1 [Compound 3, (R)-4-(4-Fluoro-phenyl)-2-oxo-1,2,3,4-tetrahydro-pyrimidine-5-carboxylic acid [2-methyl-5-(5-methyl-1H-pyrazol-3-yl)-phenyl]-amide] | 173 |
| Cc1ccc(-c2ccn[nH]c2=O)cc1NC(=O)C1=CN(C)C(=O)N[C@H]1c1ccc(F)cc1 [Compound 32, (S)-4-(4-Fluoro-phenyl)-1-methyl-2-oxo-1,2,3,4-tetrahydro-pyrimidine-5-carboxylic acid [2-methyl-5-(3-oxo-2,3-dihydro-pyridazin-4-yl)-phenyl]-amide] | 21.1 |
| Cc1ccc(-c2ccc(=O)n(C)n2)cc1NC(=O)C1=CN(C)C(=O)N[C@H]1c1ccc(F)cc1 [Compound 40, (S)-4-(4-Fluoro-phenyl)-1-methyl-2-oxo-1,2,3,4-tetrahydro-pyrimidine-5-carboxylic acid [2-methyl-5-(1-methyl-6-oxo-1,6-dihydro-pyridazin-3-yl)-phenyl]-amide] | 72.4 |
| Cc1cc(Cl)c(-n2cccc(C)c2=O)cc1NC(=O)C1=CN(C)C(=O)N[C@H]1c1ccc(F)cc1 [Compound 66, (S)-4-(4-Fluoro-phenyl)-1-methyl-2-oxo-1,2,3,4-tetrahydro-pyrimidine-5-carboxylic acid [4-chloro-2-methyl-5-(3-methyl-2-oxo-2H-pyridin-1-yl)-phenyl]-amide] | 19.5 |
| Cc1ccc2c(NC(=O)C3=CN(C)C(=O)N[C@H]3c3ccc(F)cc3)c(C)ccc2n1 [Compound 21, (S)-4-(4-Fluoro-phenyl)-1-methyl-2-oxo-1,2,3,4-tetrahydro-pyrimidine-5-carboxylic acid (2,6-dimethyl-quinolin-5-yl)-amide] | 88.1 |
| Cc1ccc(-c2cccn(C)c2=O)cc1NC(=O)C1=CN(C)C(=O)N[C@H]1c1ccc(F)cc1 [Compound 60, (S)-4-(4-Fluoro-phenyl)-1-methyl-2-oxo-1,2,3,4-tetrahydro-pyrimidine-5-carboxylic acid [2-methyl-5-(1-methyl-2-oxo-1,2-dihydro-pyridin-3-yl)-phenyl]-amide] | 5.5 |
| CN1C=C(C(=O)Nc2cc(-c3ccnn(C)c3=O)ccc2F)[C@H](c2ccc(F)cc2)NC1=O [Compound 72, (S)-4-(4-Fluoro-phenyl)-1-methyl-2-oxo-1,2,3,4-tetrahydro-pyrimidine-5-carboxylic acid [2-fluoro-5-(2-methyl-3-oxo-2,3-dihydro-pyridazin-4-yl)-phenyl]-amide] | 15.7 |
| COc1cc(C)c(NC(=O)C2=CNC(=O)N(C)C2c2ccc(F)cc2)cc1OC (stereo not shown) [Compound 13, 4-(4-Fluoro-phenyl)-3-methyl-2-oxo-1,2,3,4-tetrahydro-pyrimidine-5-carboxylic acid (4,5-dimethoxy-2-methyl-phenyl)-amide] | 85.1 |
| Cc1ccc(-c2ccc(=O)[nH]n2)cc1NC(=O)C1=CN(C)C(=O)N[C@H]1c1ccc(F)cc1 [Compound 41, (S)-4-(4-Fluoro-phenyl)-1-methyl-2-oxo-1,2,3,4-tetrahydro-pyrimidine-5-carboxylic acid [2-methyl-5-(6-oxo-1,6-dihydro-pyridazin-3-yl)-phenyl]-amide] | 29.2 |
| CN1C=C(C(=O)Nc2cc(N3CCCC3=O)ccc2Br)[C@H](c2ccc(F)cc2)NC1=O [Compound 45, (S)-4-(4-Fluoro-phenyl)-1-methyl-2-oxo-1,2,3,4-tetrahydro-pyrimidine-5-carboxylic acid [2-bromo-5-(2-oxo-pyrrolidin-1-yl)-phenyl]-amide] | 138 |
| Cc1cc(Cl)c(OCCO)cc1NC(=O)C1=CN(C)C(=O)N[C@H]1c1ccc(F)cc1 [Compound 8, (S)-4-(4-Fluoro-phenyl)-1-methyl-2-oxo-1,2,3,4-tetrahydro-pyrimidine-5-carboxylic acid [4-chloro-5-(2-hydroxy-ethoxy)-2-methyl-phenyl]-amide] | 22.9 |
| Cc1ccc(-n2ccc(=O)[nH]c2=O)cc1NC(=O)C1=CN(C)C(=O)N[C@H]1c1ccc(F)cc1 [Compound 48, (S)-4-(4-Fluoro-phenyl)-1-methyl-2-oxo-1,2,3,4-tetrahydro-pyrimidine-5-carboxylic acid [5-(2,4-dioxo-3,4-dihydro-2H-pyrimidin-1-yl)-2-methyl-phenyl]-amide] | 26 |
